Data on four molecules can be found in article PMC4074034, “Gefitinib and Luteolin Cause Growth Arrest of Human Prostate Cancer PC-3 Cells via Inhibition of Cyclin G-Associated Kinase and Induction of miR-630” (PLoS ONE, 2014).

This assay deals with T1, GAK (cyclin G-associated kinase), GST-tagged human GAK (Homo sapiens, UniProt O14976).
T1 sequence (O14976 1-1311): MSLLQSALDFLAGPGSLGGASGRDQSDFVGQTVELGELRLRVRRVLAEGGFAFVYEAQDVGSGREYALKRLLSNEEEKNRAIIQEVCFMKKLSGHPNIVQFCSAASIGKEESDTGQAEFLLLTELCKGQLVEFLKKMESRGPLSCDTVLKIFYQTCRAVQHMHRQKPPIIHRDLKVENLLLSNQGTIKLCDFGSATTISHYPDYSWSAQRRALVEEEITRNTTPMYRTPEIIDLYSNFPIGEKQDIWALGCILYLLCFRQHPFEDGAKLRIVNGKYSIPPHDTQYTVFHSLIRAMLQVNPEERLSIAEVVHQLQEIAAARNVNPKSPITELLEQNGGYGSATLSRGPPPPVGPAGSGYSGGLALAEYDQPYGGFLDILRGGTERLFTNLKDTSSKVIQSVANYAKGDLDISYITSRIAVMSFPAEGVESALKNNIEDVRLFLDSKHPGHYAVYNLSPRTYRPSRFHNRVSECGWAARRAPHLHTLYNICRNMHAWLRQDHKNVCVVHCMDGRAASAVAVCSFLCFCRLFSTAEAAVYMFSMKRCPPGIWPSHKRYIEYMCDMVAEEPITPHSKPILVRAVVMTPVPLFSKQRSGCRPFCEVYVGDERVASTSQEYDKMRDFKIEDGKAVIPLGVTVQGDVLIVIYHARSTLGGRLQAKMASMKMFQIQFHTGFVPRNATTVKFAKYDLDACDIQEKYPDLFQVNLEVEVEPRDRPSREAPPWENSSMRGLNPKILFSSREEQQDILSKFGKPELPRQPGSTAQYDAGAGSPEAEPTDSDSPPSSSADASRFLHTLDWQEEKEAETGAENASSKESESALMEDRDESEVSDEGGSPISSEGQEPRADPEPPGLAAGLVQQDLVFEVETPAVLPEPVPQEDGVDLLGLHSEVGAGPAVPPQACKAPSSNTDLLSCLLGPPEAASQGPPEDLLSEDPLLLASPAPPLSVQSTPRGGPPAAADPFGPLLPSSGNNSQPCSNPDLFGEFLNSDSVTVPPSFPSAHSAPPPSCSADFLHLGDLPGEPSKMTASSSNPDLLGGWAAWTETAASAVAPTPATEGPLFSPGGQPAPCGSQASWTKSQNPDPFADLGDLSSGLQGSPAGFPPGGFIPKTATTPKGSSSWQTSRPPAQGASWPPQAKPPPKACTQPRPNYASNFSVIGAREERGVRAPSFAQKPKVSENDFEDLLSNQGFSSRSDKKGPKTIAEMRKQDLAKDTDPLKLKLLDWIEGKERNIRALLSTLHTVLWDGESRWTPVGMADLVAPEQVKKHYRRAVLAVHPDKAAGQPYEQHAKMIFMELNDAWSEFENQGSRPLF
The assay can be described thus: […]-ATP in vitro kinase assay, SDS-PAGE autoradiography. The class given is biochemical. The settings on record: substrate mouse PP2A B'γ fragment, also autophosphorylation, 5 µM ATP, 10 mM MgCl2, 5 mM MnCl2, pH 7.5, 30°C, 30 min.

Turning to `C[S+]([O-])c1ccc(-c2nc(-c3ccc(F)cc3)c(-c3ccncc3)[nH]2)cc1` (stereo not shown) [SB203580], the “intensity ratio of phosphorylated PP2A B'γ and GAK” value (shortened to “intensity ratio”) is “Both of these compounds inhibited GAK activity similarly”.

Turning to `C#Cc1cccc(Nc2ncnc3cc(OCCOC)c(OCCOC)cc23)c1` [erlotinib], the “intensity ratio” value is reported as “Both of these compounds inhibited GAK activity similarly”. Same read-out and setting: in the case of `COc1cc2ncnc(Nc3ccc(F)c(Cl)c3)c2cc1OCCCN1CCOCC1` [gefitinib] it was “Gefitinib inhibited GAK autophosphorylation and GAK-mediated phosphorylation of PP2A B′γ in a dose-dependent manner”.

Turning to `Oc1ccc(/C=C/c2cc(O)cc(O)c2)cc1` [resveratrol], the “intensity ratio” value (10 µM compound) was “the same concentration of resveratrol had only a slight inhibitory effect”.
